Source: EPA's ToxRefDB 2

Assays:
rat [1] = conditions: Prenatal developmental toxicity study, sprague dawley, Injection, Intravenous, dose end: 17 GD
rat [2] = conditions: Fertility (Segment I); sprague dawley; Injection; Intravenous; dose end: 20 GD; group: parental; systemic / in life observation / body weight / body weight gain + systemic / in life observation / food consumption / food consumption + …
rabbit [3] = conditions: Prenatal developmental toxicity study, new zealand white, Injection, Intravenous, dose end: 19 GD
rabbit [4] = conditions: Sub-acute repeat dose toxicity, new zealand white, Oral, Gavage/Intubation, dose end: 5 day, group: systemic
rat [5] = conditions: Sub-acute repeat dose toxicity, sprague dawley, Oral, Gavage/Intubation, dose end: 7 day, group: systemic
dog [6] = conditions: Sub-acute repeat dose toxicity; beagle; Oral; Gavage/Intubation; dose end: 5 day; group: systemic; systemic / in life observation / clinical signs / abnormal feces
rat [7] = conditions: Sub-acute repeat dose toxicity; sprague dawley; Oral; Gavage/Intubation; dose end: 14 day; group: systemic; systemic / clinical chemistry / 5' nucleotidase / 5' nucleotidase + systemic / clinical chemistry / alanine aminotransferase (alt/sgpt) / …
rat [8] = conditions: Sub-acute repeat dose toxicity; sprague dawley; Oral; Gavage/Intubation; dose end: 4 day; group: systemic; systemic / in life observation / clinical signs / respiration (rales) + systemic / in life observation / mortality / mortality + systemic / …
dog [9] = conditions: Sub-acute repeat dose toxicity, beagle, Oral, Gavage/Intubation, dose end: 5 day, group: systemic
rabbit [10] = conditions: Sub-acute repeat dose toxicity; new zealand white; Oral; Gavage/Intubation; dose end: 4 day; group: systemic; systemic / in life observation / body weight / body weight + systemic / in life observation / food consumption / food consumption
rat [11] = conditions: Subchronic oral toxicity in rodents, sprague dawley, Gavage/Intubation, dose end: 93 day, group: systemic
dog [12] = conditions: Subchronic oral toxicity in nonrodent, beagle, Gavage/Intubation, dose end: 93 day, group: systemic
dog [13] = conditions: Sub-acute repeat dose toxicity; beagle; Oral; Gavage/Intubation; dose end: 14 day; group: systemic; systemic / in life observation / clinical signs / emesis + systemic / in life observation / clinical signs / tremors + systemic / in life …
[14] = group: developmental, developmental / developmental malformation / bone / incomplete ossification + developmental / developmental malformation / bone / knobby + …
[15] = group: developmental, developmental / developmental malformation / ureter / convoluted
[16] = group: maternal, systemic / in life observation / body weight / body weight gain
[17] = group: maternal, systemic / in life observation / body weight / body weight gain + systemic / in life observation / food consumption / food consumption
[18] = group: developmental, developmental / developmental malformation / heart / enlarged aortic valve
[19] = group: maternal, reproductive / offspring survival early / litter size / litter size
[20] = systemic / in life observation / body weight / body weight + systemic / in life observation / clinical signs / erythema
[21] = systemic / in life observation / clinical signs / erythema
[22] = systemic / clinical chemistry / albumin-globulin ratio / albumin-globulin ratio + systemic / clinical chemistry / cholesterol / cholesterol…
[23] = systemic / in life observation / clinical signs / salivation + systemic / pathology microscopic / liver / vacuolization
[24] = systemic / in life observation / clinical signs / abnormal feces + systemic / in life observation / clinical signs / arrhythmia + systemic…
[25] = systemic / in life observation / clinical signs / salivation
[26] = systemic / in life observation / clinical signs / abnormal respiratory sounds + systemic / in life observation / clinical signs / salivation
[27] = systemic / organ weight / adrenal gland / absolute + systemic / in life observation / food consumption / food consumption + systemic / …
[28] = systemic / in life observation / clinical signs / abnormal feces + systemic / in life observation / clinical signs / salivation
[29] = systemic / in life observation / clinical signs / emesis + systemic / organ weight / adrenal gland / absolute + systemic / clinical …

CCOC(=O)c1ccc(C2CCC(NC[C@H](O)COc3ccc(O)c(NS(C)(=O)=O)c3)CC2)cc1.Cl (stereo partly specified)
LOAEL (rat [1]; [14]): 160 mg/kg/day | NOAEL (rat [1]; [14]): 40 mg/kg/day | LEL (rat [1]; [15]): 10 mg/kg/day | NEL (rat [1]; [15]): < 10 mg/kg/day | LEL (rat [1]; [16]): 10 mg/kg/day | NEL (rat [1]; [16]): < 10 mg/kg/day | LOAEL (rat [1]; [17]): 160 mg/kg/day | NOAEL (rat [1]; [17]): 40 mg/kg/day | LEL (rat [2]): 160 mg/kg/day | LOAEL (rat [2]): 160 mg/kg/day | LEL (rabbit [3]; [18]): 160 mg/kg/day | LOAEL (rabbit [3]; [18]): > 160 mg/kg/day | NEL (rabbit [3]; [18]): 80 mg/kg/day | NOAEL (rabbit [3]; [18]): ≥ 160 mg/kg/day | LOAEL (rabbit [3]; [19]): 80 mg/kg/day | NOAEL (rabbit [3]; [19]): 40 mg/kg/day | LEL (rabbit [3]; group: maternal, reproductive / offspring survival early / litter size / litter size + reproductive / reproductive performance / postimplantation loss / …): 80 mg/kg/day | NEL (rabbit [3]; group: maternal, reproductive / reproductive performance / postimplantation loss / postimplantation loss + reproductive / reproductive performance / …): 40 mg/kg/day

COc1ccc(C(C)(C)C)cc1CN[C@H]1C2CCN(CC2)[C@H]1C(c1ccccc1)c1ccccc1
LOAEL (rabbit [4]; [20]): > 150 mg/kg/day | NOAEL (rabbit [4]; [20]): ≥ 150 mg/kg/day | LEL (rabbit [4]; [21]): 5 mg/kg/day | NEL (rabbit [4]; [21]): < 5 mg/kg/day | LOAEL (rat [5]; [22]): > 100 mg/kg/day | NOAEL (rat [5]; [22]): ≥ 100 mg/kg/day | LEL (rat [5]; [23]): 30 mg/kg/day | NEL (rat [5]; [23]): < 30 mg/kg/day | LEL (dog [6]): 5 mg/kg/day | LOAEL (dog [6]): > 20 mg/kg/day | NEL (dog [6]): < 5 mg/kg/day | NOAEL (dog [6]): ≥ 20 mg/kg/day | LOAEL (rat [7]): > 500 mg/kg/day | NEL (rat [7]): < 150 mg/kg/day | NOAEL (rat [7]): ≥ 500 mg/kg/day | LEL (rat [8]): 300 mg/kg/day | LOAEL (rat [8]): > 300 mg/kg/day | NEL (rat [8]): < 300 mg/kg/day | NOAEL (rat [8]): ≥ 300 mg/kg/day | LOAEL (dog [9]; [24]): > 20 mg/kg/day | NOAEL (dog [9]; [24]): ≥ 20 mg/kg/day | LEL (dog [9]; [25]): 5 mg/kg/day | NEL (dog [9]; [25]): < 5 mg/kg/day | LOAEL (rabbit [10]): > 150 mg/kg/day | NEL (rabbit [10]): 30 mg/kg/day | NOAEL (rabbit [10]): ≥ 150 mg/kg/day | LEL (rat [11]; [26]): 5 mg/kg/day | NEL (rat [11]; [26]): < 5 mg/kg/day | LOAEL (rat [11]; [27]): > 150 mg/kg/day | NOAEL (rat [11]; [27]): ≥ 150 mg/kg/day | LEL (dog [12]; [28]): 1 mg/kg/day | NEL (dog [12]; [28]): < 1 mg/kg/day | LOAEL (dog [12]; [29]): > 20 mg/kg/day | NOAEL (dog [12]; [29]): ≥ 20 mg/kg/day | LEL (dog [13]): 20 mg/kg/day | LOAEL (dog [13]): > 20 mg/kg/day | NEL (dog [13]): < 20 mg/kg/day | NOAEL (dog [13]): ≥ 20 mg/kg/day
